Article PMC10518257 (Nature Cancer, 2023)
Where “and” joins values, the source holds several entries; their conditions need not be identical. Identical values can stand only once. Like-named read-outs stand apart in the source and are kept apart here.

Assays:
Ba/F3-CCDC6::RET = assay: Growth inhibition assay in Ba/F3 cells (CellTiter-Glo, 72 h); format: cell-based
Ba/F3-RET^M918T = assay: as above; format: cell-based; details: Mus musculus, BaF3, 72 h, read-out: GI50 value (Mean ± SD), Ba/F3-RET^M918T, CellTiter-Glo, 72 h
[1] = tested on: Ba/F3 cells expressing KIF5B–RET^G810S; assay: as above; format: cell-based; details: replicate Sets 1-3
[2] = tested on: Ba/F3 cells expressing KIF5B–RET^V804M; assay: as above; format: cell-based; details: replicate sets
[3] = tested on: LUAD-0002AS1 cells (KIF5B::RET); assay: Dose-response western blotting, EC50 for inhibition of protein phosphorylation; format: cell-based; details: Homo sapiens, LUAD-0002AS1, 2 h, densitometry
TT cells (RET C634W) = assay: as above; format: cell-based; details: Homo sapiens
HBECp53-EV cells = assay: Growth inhibition (alamarBlue, 96 h); format: cell-based, human; details: for raw viability signal (Source Data Fig. 3b-c): HBEC-EV, replicate sets
LUAD-0057BS1 cells = assay: Growth inhibition (alamarBlue, 96 h); format: cell-based, human; details: for raw viability signal (Source Data Fig. 3b-c): LUAD-0057BS1, replicate sets
ECLC5B cells = assay: Growth inhibition (alamarBlue, 96 h); format: cell-based, human; details: for raw viability signal (Source Data Fig. 3b-c): ECLC5B, replicates
[4] = tested on: Ba/F3 KIF5B–RET^G810R allograft tumors; assay: Subcutaneous allograft efficacy study; format: in vivo, BALB/c nude mice; details: in mm³ (unit assumed);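 note: mean tumor volume per dosing group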
[5] = tested on: ECLC5 luciferase cells implanted intracranially; assay: Intracranial efficacy study; format: in vivo, NSG mice; details: for Luminescence Data: Fig. 8e ECLC5 intracranial, 50 mg/kg BID, individual animals
[6] = Homo sapiens, 96 h, read-out: IC50 for Inhibition of Growth (95% CI)

## COCc1ccc(NC(=O)c2c(C#CCN3CCOCC3)n(C3(C)CC3)c3ncnc(N)c23)cc1 [Vepafestinib, 4-amino-N-[4-(methoxymethyl)phenyl]-7-(1-methylcyclopropyl)-6-[3-(morpholin-4-yl)prop-1-yn-1-yl]-7H-pyrrolo[2,3-d]pyrimidine-5-carboxamide]
Ba/F3-CCDC6::RET; BaF3/CCDC6-RET, 72 h, read-out: GI50 value (Mean ± SD), Ba/F3-CCDC6::RET, CellTiter-Glo, 72 h
  GI50: 22 ± 9.3 nM
Ba/F3-CCDC6::RET; read-out: GI50 values, Ba/F3-CCDC6::RET, individual sets (replicate experiments)
  GI50: 14 nM and 32.2 nM and 19.9 nM
Ba/F3-RET^M918T
  GI50: 1.94 ± 0.88 nM
[1]; Ba/3-KIF5B-RET-G810S
  GI50: 14.7 nM and 13.1 nM
[1]; Mus musculus, BaF3, Ba/3-KIF5B-RET-G810S
  GI50: 7.93 nM
[2]; Ba/3-KIF5B-RET-V804M
  GI50: 38.7 nM
[2]; Mus musculus, BaF3, Ba/3-KIF5B-RET-V804M
  GI50: 44.8 nM
[3]; read-out: EC50 for Inhibition of Protein Phosphorylation (95% CI), AKT S473
  EC50: 1.4 nM
[3]; read-out: EC50 for Inhibition of Protein Phosphorylation (95% CI), ERK1/2 T202/Y204
  EC50: 0.9 nM
[3]; read-out: EC50 for Inhibition of Protein Phosphorylation (95% CI), MEK1/2 S217/S221
  EC50: 1.5 nM
[3]; read-out: EC50 for Inhibition of Protein Phosphorylation (95% CI), P70 RSK T421/S424
  EC50: 4.9 nM
[3]; read-out: EC50 for Inhibition of Protein Phosphorylation (95% CI), RET Y905
  EC50: 1.3 nM
[3]; read-out: EC50 for Inhibition of Protein Phosphorylation (95% CI), S6RP S235/S236
  EC50: 15 nM
TT cells (RET C634W); read-out: EC50 for Inhibition of Protein Phosphorylation (95% CI), AKT S473, 2 h, densitometry
  EC50: 2.4 nM
TT cells (RET C634W); read-out: EC50 for Inhibition of Protein Phosphorylation (95% CI), ERK1/2 T202/Y204, 2 h, densitometry
  EC50: 0.3 nM
TT cells (RET C634W); read-out: EC50 for Inhibition of Protein Phosphorylation (95% CI), MEK1/2 S217/S221, 2 h, densitometry
  EC50: 2.1 nM
TT cells (RET C634W); read-out: EC50 for Inhibition of Protein Phosphorylation (95% CI), P70 RSK T421/S424, 2 h, densitometry
  EC50: 1.1 nM
TT cells (RET C634W); read-out: EC50 for Inhibition of Protein Phosphorylation (95% CI), RET Y905, 2 h, densitometry
  EC50: 0.3 nM
TT cells (RET C634W); read-out: EC50 for Inhibition of Protein Phosphorylation (95% CI), S6RP S235/S236, 2 h, densitometry
  EC50: 0.7 nM
HBECp53-EV cells; 0.01 nM
  raw viability signal (Source Data Fig. 3b-c): 27037 and 29740.2
HBECp53-EV cells; 0.1 nM
  raw viability signal (Source Data Fig. 3b-c): 19425.3 (2×) and 27020.1 and 29597.7
HBECp53-EV cells; 1 nM
  raw viability signal (Source Data Fig. 3b-c): 18975.7 (2×) and 23808.3 and 29292.2
HBECp53-EV cells; 10 nM
  raw viability signal (Source Data Fig. 3b-c): 19412.6 (2×) and 25517.4 and 26617.3
HBECp53-EV cells; 100 nM
  raw viability signal (Source Data Fig. 3b-c): 19354.5 (2×) and 27120.8 and 27640.4
HBECp53-EV cells; 1000 nM
  raw viability signal (Source Data Fig. 3b-c): 20047.9 (2×) and 18738.8 and 27632.3
HBECp53-EV cells; 10000 nM
  raw viability signal (Source Data Fig. 3b-c): 7853.82 (2×) and 1053.31 and 23430.8
HBECp53-EV cells; [6]
  IC50: 7900 nM
LUAD-0057BS1 cells; [6]
  IC50: 60 nM
LUAD-0057BS1 cells; 0.01 nM
  raw viability signal (Source Data Fig. 3b-c): 17419.2 and 15925.4 and 18689.8 and 23015.1
LUAD-0057BS1 cells; 0.1 nM
  raw viability signal (Source Data Fig. 3b-c): 17721.3 and 15866.4 and 19298.6 and 21993.3
LUAD-0057BS1 cells; 1 nM
  raw viability signal (Source Data Fig. 3b-c): 17137.9 and 16657.5 and 19117.5 and 21130.9
LUAD-0057BS1 cells; 10 nM
  raw viability signal (Source Data Fig. 3b-c): 14331 and 15273.4 and 17077.7 and 19439.8
LUAD-0057BS1 cells; 100 nM
  raw viability signal (Source Data Fig. 3b-c): 7158.2 and 6135.51 and 7993.83 and 7600.63
LUAD-0057BS1 cells; 1000 nM
  raw viability signal (Source Data Fig. 3b-c): 3333.45 and 1678.22 and 2095.91 and 2070.83
LUAD-0057BS1 cells; 10000 nM
  raw viability signal (Source Data Fig. 3b-c): 2605.9 and 881.24 and 1045.29 and 1424.56
ECLC5B cells; 0.01 nM
  raw viability signal (Source Data Fig. 3b-c): 9826.46 and 7916.25 and 19010.8
ECLC5B cells; 0.1 nM
  raw viability signal (Source Data Fig. 3b-c): 10351 and 8612.52 and 20662.3
ECLC5B cells; 1 nM
  raw viability signal (Source Data Fig. 3b-c): 10751.4 and 8385.29 and 18478.3
ECLC5B cells; 10 nM
  raw viability signal (Source Data Fig. 3b-c): 4019.62 and 1873.82 and 8615.92
ECLC5B cells; 100 nM
  raw viability signal (Source Data Fig. 3b-c): 3307.08 and 1329.05 and 4450.27
ECLC5B cells; 1000 nM
  raw viability signal (Source Data Fig. 3b-c): 2927.89 and 1305.13 and 4874.13
ECLC5B cells; 10000 nM
  raw viability signal (Source Data Fig. 3b-c): 1756.2 and 2012.52 and 6114.45
ECLC5B cells; [6]
  IC50: 7 nM
[4]; Fig. 7c Ba/F3-KIF5B::RET G810R, vepafestinib 10 mg/kg BID, day 1
  Tumor Volume Mean: 153.82
[4]; Fig. 7c Ba/F3-KIF5B::RET G810R, vepafestinib 10 mg/kg BID, day 4
  Tumor Volume Mean: 151.29
[4]; Fig. 7c Ba/F3-KIF5B::RET G810R, vepafestinib 10 mg/kg BID, day 8
  Tumor Volume Mean: 262.19
[4]; Fig. 7c Ba/F3-KIF5B::RET G810R, vepafestinib 10 mg/kg BID, day 11
  Tumor Volume Mean: 374.99
[4]; Fig. 7c Ba/F3-KIF5B::RET G810R, vepafestinib 10 mg/kg BID, day 15
  Tumor Volume Mean: 551.42
[4]; Fig. 7d Ba/F3-KIF5B::RET G810R, vepafestinib 50 mg/kg BID, day 1
  Tumor Volume Mean: 158.4
[4]; Fig. 7d Ba/F3-KIF5B::RET G810R, vepafestinib 50 mg/kg BID, day 4
  Tumor Volume Mean: 122.1
[4]; Fig. 7d Ba/F3-KIF5B::RET G810R, vepafestinib 50 mg/kg BID, day 8
  Tumor Volume Mean: 133.3
[4]; Fig. 7d Ba/F3-KIF5B::RET G810R, vepafestinib 50 mg/kg BID, day 11
  Tumor Volume Mean: 139.6
[4]; Fig. 7d Ba/F3-KIF5B::RET G810R, vepafestinib 50 mg/kg BID, day 15
  Tumor Volume Mean: 173.1
[5]; 50 mg per kg BID, all animals alive
  survival time: > 139 d of treatment
[5]; treatment day 0 (=1)
  Luminescence Data: 1
[5]; treatment day 5, day 0 = 1, 50 mg/kg
  Luminescence Data: 0.4116 and 0.5677 and 0.6168 and 0.1116 and 0.9191 and 0.3141
[5]; treatment day 12, day 0 = 1, 50 mg/kg
  Luminescence Data: 0.3041 and 0.6223 and 0.3951 and 0.05187 and 0.856 and 0.4174
[5]; treatment day 18, day 0 = 1, 50 mg/kg
  Luminescence Data: 0.3959 and 0.7406 and 0.6024 and 0.03931 and 0.9545 and 0.2802
[5]; treatment day 26, day 0 = 1, 50 mg/kg
  Luminescence Data: 0.3977 and 0.5749 and 0.4469 and 0.01537 and 0.7719 and 0.2517
[5]; treatment day 33, day 0 = 1, 50 mg/kg
  Luminescence Data: 0.4164 and 0.7522 and 0.6219 and 0.01856 and 1.136 and 0.285
[5]; treatment day 40, day 0 = 1, 50 mg/kg
  Luminescence Data: 0.3201 and 0.5375 and 0.4135 and 0.01963 and 0.792 and 0.1799
[5]; treatment day 46, day 0 = 1, 50 mg/kg
  Luminescence Data: 0.3305 and 0.5368 and 0.3264 and 0.008566 and 0.9694 and 0.2044
[5]; treatment day 55, day 0 = 1, 50 mg/kg
  Luminescence Data: 0.516 and 0.834 and 0.6149 and 0.01696 and 1.167 and 0.3646
[5]; treatment day 61, day 0 = 1, 50 mg/kg
  Luminescence Data: 0.3872 and 0.6582 and 0.5284 and 0.01449 and 1.158 and 0.246
[5]; treatment day 68, day 0 = 1, 50 mg/kg
  Luminescence Data: 0.3804 and 0.71 and 0.4932 and 0.01469 and 1.521 and 0.2588
[5]; treatment day 75, day 0 = 1, 50 mg/kg
  Luminescence Data: 0.2695 and 0.603 and 0.5415 and 0.02346 and 1.537 and 0.2239
[5]; treatment day 82, day 0 = 1, 50 mg/kg
  Luminescence Data: 0.477 and 0.7647 and 0.421 and 0.02545 and 2.278 and 0.2761
[5]; treatment day 89, day 0 = 1, 50 mg/kg
  Luminescence Data: 0.4292 and 0.858 and 0.6342 and 0.04079 and 3.665 and 0.3289
[5]; treatment day 96, day 0 = 1, 50 mg/kg
  Luminescence Data: 0.3189 and 0.6963 and 0.5402 and 0.01338 and 5.016 and 0.1926
[5]; treatment day 103, day 0 = 1, 50 mg/kg
  Luminescence Data: 0.4201 and 0.6542 and 0.7489 and 0.02359 and 6.915 and 0.2847
[5]; treatment day 110, day 0 = 1, 50 mg/kg
  Luminescence Data: 0.2991 and 0.6305 and 0.5409 and 0.02851
